Columns and labels:
[1] = Octanol-water partition coefficient; format: physicochemical; settings: 177Lu-labelled; n-octanol/PBS pH 7.4; n=6
Description: Approximately 1 MBq of the labelled tracer was dissolved in 1 mL of a 1:1 mixture (v/v) of PBS (pH 7.4) and n-octanol in a reaction vial (1.5 mL). After vigorous mixing of the suspension for 3 minutes at room temperature, the vial was centrifuged at 15000 g for 3 minutes (Biofuge 15, Heraeus Sepatech, Osterode, Germany) and 100 μL aliquots of both layers were measured in a gamma counter. The experiment was repeated at least six times.
FIG. 5 and the following table summarize log PO/W values of the synthesized radiolabeled ^177Lu-PSMA ligand compounds and ^177Lu-references (n=6).

[2] = molecular target: T1, PSMA (Homo sapiens, UniProt Q04609); test: PSMA affinity (IC50), competition with ([125I]I-BA)KuE on LNCaP cells; settings: natLu complexes; LNCaP cells 150000 cells/well, ([125I]I-BA)KuE c=0.2 nM, 1 h, 4 °C, HBSS+1% BSA; mean±SD, n=3; read-out: IC50 (binding affinity to PSMA)
T1 construct: PSMA-positive LNCAP cells (300265; Cell Lines Service, Eppelheim, Germany); host or cells: LNCaP cells
T1 sequence (Q04609 whole entry): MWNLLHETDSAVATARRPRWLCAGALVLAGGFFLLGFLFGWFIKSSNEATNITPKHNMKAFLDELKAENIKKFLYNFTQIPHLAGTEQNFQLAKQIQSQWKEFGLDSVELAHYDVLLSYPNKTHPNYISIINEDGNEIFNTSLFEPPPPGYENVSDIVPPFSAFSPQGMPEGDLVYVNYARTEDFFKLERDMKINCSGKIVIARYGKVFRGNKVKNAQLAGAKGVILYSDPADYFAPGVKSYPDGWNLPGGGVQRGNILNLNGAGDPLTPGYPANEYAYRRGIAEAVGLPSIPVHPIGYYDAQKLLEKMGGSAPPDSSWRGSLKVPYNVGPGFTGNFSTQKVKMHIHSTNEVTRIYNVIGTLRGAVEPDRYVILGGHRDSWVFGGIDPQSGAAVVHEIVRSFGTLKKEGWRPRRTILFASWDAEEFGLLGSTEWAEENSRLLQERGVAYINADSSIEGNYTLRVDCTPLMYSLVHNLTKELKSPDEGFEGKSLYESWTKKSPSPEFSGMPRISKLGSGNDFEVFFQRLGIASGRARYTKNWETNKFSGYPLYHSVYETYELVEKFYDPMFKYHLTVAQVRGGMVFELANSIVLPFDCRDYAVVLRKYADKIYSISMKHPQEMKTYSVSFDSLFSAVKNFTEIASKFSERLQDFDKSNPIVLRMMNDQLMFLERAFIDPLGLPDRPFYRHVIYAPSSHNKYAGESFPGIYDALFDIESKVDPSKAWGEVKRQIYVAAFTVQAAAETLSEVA
Description: PSMA-positive LNCAP cells (300265; Cell Lines Service, Eppelheim, Germany) were cultivated in Dulbecco modified Eagle medium/Nutrition Mixture F-12 with Glutamax (1:1) (DMEM-F12, Biochrom, Berlin, Germany) supplemented with fetal bovine serum (10%, FBS Zellkultur, Berlin, Germany) and kept at 37° C. in a humidified CO2 atmosphere (5%). A mixture of trypsin and EDTA (0.05%, 0.02%) in PBS (Biochrom) was used in order to harvest cells. Cells were counted with a Neubauer hemocytometer (Paul Marienfeld, Lauda-Königshofen, Germany).
In the case of metal-complexed ligands, the crude reaction mixture was diluted analogously, without further purification. Cells were harvested 24±2 hours prior to the experiment and seeded in 24-well plates (1.5×10^5 cells in 1 mL/well). After removal of the culture medium, the cells were carefully washed with 500 μL of HBSS, supplemented with 1% bovine serum albumin (BSA, Biowest, Nuaillé, France) and left 15 min on ice for equilibration in 200 μL HBSS (1% BSA). Next, 25 μL per well of solutions, containing either HBSS (1% BSA, control) or the respective ligand in increasing concentration ([…] in HBSS) were added with subsequent addition of 25 μL of [^125I]-BA-KuE (2.0 nM) in HBSS (1% BSA). After incubation on ice for 60 min, the experiment was terminated by removal of the medium and consecutive rinsing with 200 μL of HBSS (1% BSA). The media of both steps were combined in one fraction and represent the amount of free radioligand. Afterwards, the cells were lysed with 250 μL of 1 M aqueous NaOH for at least 10 min. After a washing step (250 μL of 1 M NaOH), both fractions, representing the amount of bound ligand, were united. Quantification of all collected fractions was accomplished in a γ-counter. PSMA-affinity determinations were carried out at least three times per ligand.
Affinities were determined using LNCaP cells (150000 cells/well) and ([^125I]I-BA)KuE (c=0.2 nM) as the radioligand (1 h, 4° C., HBSS+1% BSA). Data are expressed as mean±SD (n=3).

[3] = molecular target: human serum albumin (HSA) (Homo sapiens, UniProt P02768); test: HSA binding by radio inversed affinity chromatography (RIAC); format: in vitro ADME; settings: 177Lu-labelled; Superdex 75 Increase 10/300 GL, 700 μM HSA in PBS, 0.8 mL/min
Chain of human serum albumin (HSA) (P02768 25-609): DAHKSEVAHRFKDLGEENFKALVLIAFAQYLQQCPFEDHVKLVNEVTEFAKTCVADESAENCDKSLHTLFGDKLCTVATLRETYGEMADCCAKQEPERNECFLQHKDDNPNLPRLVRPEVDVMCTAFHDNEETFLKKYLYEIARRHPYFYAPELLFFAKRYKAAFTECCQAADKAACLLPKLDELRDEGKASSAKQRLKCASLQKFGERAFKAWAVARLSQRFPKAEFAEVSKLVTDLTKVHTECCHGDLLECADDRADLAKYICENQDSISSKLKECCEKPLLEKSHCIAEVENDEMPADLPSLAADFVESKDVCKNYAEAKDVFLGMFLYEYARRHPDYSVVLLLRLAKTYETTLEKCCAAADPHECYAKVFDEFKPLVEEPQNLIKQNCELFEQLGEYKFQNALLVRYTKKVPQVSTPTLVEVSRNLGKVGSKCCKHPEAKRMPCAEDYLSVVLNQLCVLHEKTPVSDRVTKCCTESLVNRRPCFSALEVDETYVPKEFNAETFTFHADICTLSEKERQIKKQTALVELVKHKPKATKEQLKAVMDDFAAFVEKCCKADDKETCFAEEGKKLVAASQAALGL
Description: A gel filtration column Superdex 75 Increase 10/300 GL (GE Healthcare, Uppsala, Sweden) was beforehand calibrated following the producer's recommendations with a commercially available gel filtration calibration kit (GE Healthcare, Buckinghamshire, UK) comprising conalbumin (MW: 75 kDa), ovalbumin (44 kDa), carbonic anhydrase (29 kDa), ribonuclease A (13.7 kDa) and aprotinin (6.5 kDa) as reference proteins of known molecular weight. RIAC experiments were conducted using a constant flow rate of 0.8 mL/min at rt. A solution of HSA in PBS at physiological concentration (700 μM) was used as the mobile phase. PSMA ligands were labelled as described with molar activities of 10-20 GBq/μmol. Probes of 1.0 MBq of the radioligand were injected directly from the labelling solution. HSA binding was expressed as an apparent molecular weight MW calculated from the retention time of the radioligand using the determined calibration curve.
The following table summarizes the underlying data. MW: molecular weight. tR: experimentally determined retention time. V: elution volume. Kav: partition coefficient.
RIAC, in an inversed way, comprises ligand samples (radiolabeled PSMA ligands) and a protein (HSA) containing mobile phase. Ligand-specific retention is caused by interaction of the ligand probe and HSA in the mobile phase. Unbound species, due to a molecular weight beneath the molecular cut off of the gel filtration column, are maximally retained while bound species are eluted in accordance to the higher molecular weight of the ligand-HSA-complex (MWHSA: 66.47 kDa). Experiments show a single radiopeak indicating a dynamic process of formation and dissociation of the ligand-HSA-complex throughout the passage through the column bed. Accordingly, the absolute retention time is the result of the ligand's mean time of abidance at HSA which is directly defined by the ligand's binding kinetics and affinity toward HSA. For evaluation, experimentally determined retention times tR are first converted into elution volumes Ve by multiplying with the flow rate and thereafter converted into partition coefficients Kav following the equation
where V0 is the column void volume (8.027 mL) and Vc is the geometric column volume (24 mL). Using the equation given by the trend line plot of the column calibration
the apparent molecular weight MW is calculated as
FIG. 7 and the table below show the results HSA-binding of lutetium-complexed PSMA-ligands and reference compounds determined by RIAC on a Superdex 75 Increase 10/300 GL column 700 μM HSA in PBS as solvent using a constant flow rate of 0.8 mL/min (plotted data, extracted from FIG. 8).
FIG. 8 illustrates the determination of HSA binding via radio inverse affinity chromatography (RIAC). Correlation of apparent molecular weight (MW) in Dalton (Da) and retention time of ^177Lu-labeled samples, determined on a Superdex 75 Increase 10/300 GL with 700 μM HSA in PBS as solvent using a constant flow rate of 0.8 mL/min.

| Structure (SMILES) | Log PO/W [1] | IC50 [2] | HSA-binding RIAC (apparent molecular weight) [3] |
| --- | --- | --- | --- |
| CC(C)(C)[Si](O)(c1ccc(C(=O)NC[C@@H](NC(=O)CC[C@@H](C(=O)O)N2CCN(CC(=O)O)CCN(CC(=O)O)CCN(CC(=O)O)CC2)C(=O)N[C@H](CCCCNC(=O)CCC(=O)NCCC[C@@H](NC(=O)CC[C@H](NC(=O)N[C@@H](CCC(=O)O)C(=O)O)C(=O)O)C(=O)O)C(=O)O)cc1)C(C)(C)C [7.3-SiOH] | −3.9 ± 0.1 | 5.9 ± 1.4 nM | 10.1 kDa |
| CC(C)(C)[Si](O)(c1ccc(C(=O)NC[C@@H](NC(=O)CC[C@@H](C(=O)O)N2CCN(CC(=O)O)CCN(CC(=O)O)CCN(CC(=O)O)CC2)C(=O)N[C@H](CO)C(=O)NCCC(=O)NCCC(=O)NCCC[C@@H](NC(=O)CC[C@H](NC(=O)N[C@@H](CCC(=O)O)C(=O)O)C(=O)O)C(=O)O)cc1)C(C)(C)C [C007-SiOH] | −4.28 ± 0.09 | 7.1 ± 0.9 nM | 8.0 kDa |
| CC(C)(C)[Si](O)(c1ccc(C(=O)NC[C@@H](NC(=O)CC[C@@H](C(=O)O)N2CCN(CC(=O)O)CCN(CC(=O)O)CCN(CC(=O)O)CC2)C(=O)NCC(=O)N[C@@H](CCCCNC(=O)CCC(=O)NCCC[C@@H](NC(=O)CC[C@H](NC(=O)N[C@@H](CCC(=O)O)C(=O)O)C(=O)O)C(=O)O)C(=O)O)cc1)C(C)(C)C [E102-SiOH] | −4.14 ± 0.08 | 8.4 ± 2.4 nM | 9.3 kDa |
| CC(C)(C)[Si](O)(c1ccc(C(=O)NC[C@@H](NC(=O)CCCCCNC(=O)CCCNC(=O)CC[C@@H](NC(=O)CCC(NC(=O)N[C@@H](CCC(=O)O)C(=O)O)C(=O)O)C(=O)O)C(=O)NCC(=O)N[C@@H](CCCCNC(=O)CC[C@@H](C(=O)O)N2CCN(CC(=O)O)CCN(CC(=O)O)CCN(CC(=O)O)CC2)C(=O)O)cc1)C(C)(C)C (stereo partly drawn) [E104-SiOH] | −3.77 ± 0.16 | 9 ± 2.2 nM | 7.8 kDa |
| CC(C)(C)[Si](O)(c1ccc(C(=O)N[C@H](CCC(=O)NC[C@@H](NC(=O)CC[C@@H](C(=O)O)N2CCN(CC(=O)O)CCN(CC(=O)O)CCN(CC(=O)O)CC2)C(=O)NCCCCCC(=O)NCCC[C@@H](NC(=O)CC[C@H](NC(=O)N[C@@H](CCC(=O)O)C(=O)O)C(=O)O)C(=O)O)C(=O)O)cc1)C(C)(C)C [P105-SiOH] | −3.94 ± 0.07 | 9.8 ± 0.4 nM | 10.4 kDa |
| CC(C)(C)[Si](O)(c1ccc(C[N+](C)(C)CC(=O)NCCC[C@@H](NC(=O)CC[C@@H](C(=O)O)N2CCN(CC(=O)O)CCN(CC(=O)O)CCN(CC(=O)O)CC2)C(=O)NCCCCCC(=O)NCCC[C@@H](NC(=O)CC[C@H](NC(=O)N[C@@H](CCC(=O)O)C(=O)O)C(=O)O)C(=O)O)cc1)C(C)(C)C [P110-SiOH] | −4.11 ± 0.07 | 42.2 ± 6.2 nM | 5.2 kDa |
| O=C(O)CC[C@H](NC(=O)N[C@@H](CCCCNC(=O)[C@H](Cc1ccc2ccccc2c1)NC(=O)[C@H]1CC[C@H](CNC(=O)CN2CCN(CC(=O)O)CCN(CC(=O)O)CCN(CC(=O)O)CC2)CC1)C(=O)O)C(=O)O [PSMA-617, reference compound] | −4.1 ± 0.1 | 3.8 ± 1.7 nM | 13.7 kDa |
| CC(C)(C)[Si](F)(c1ccc(C(=O)NC[C@@H](NC(=O)CC[C@@H](C(=O)O)N2CCN(CC(=O)O)CCN(CC(=O)O)CCN(CC(=O)O)CC2)C(=O)N[C@H](CCCCNC(=O)CCC(=O)NCCC[C@@H](NC(=O)CC[C@H](NC(=O)N[C@@H](CCC(=O)O)C(=O)O)C(=O)O)C(=O)O)C(=O)O)cc1)C(C)(C)C [rhPSMA-7.3, reference compound] | −3.8 ± 0.1 | 8 ± 1.6 nM | 30.2 kDa |
| CC(C)(C)[Si](F)(c1ccc(C(=O)NC[C@@H](NC(=O)CN2CCN(CC(=O)O)CCN(CC(=O)O)CCN(CC(=O)O)CC2)C(=O)N[C@H](CCCCNC(=O)CCC(=O)NCCC[C@@H](NC(=O)CC[C@H](NC(=O)N[C@@H](CCC(=O)O)C(=O)O)C(=O)O)C(=O)O)C(=O)O)cc1)C(C)(C)C [rhPSMA-10, reference compound] | −3.6 ± 0.1 | 2.8 ± 0.7 nM | 25.4 kDa |

From patent publication US20230277698A1, “SILICON-CONTAINING LIGAND COMPOUNDS” (Technische Universität München, priority 2020, published 2023)
